Measured values reported in US20240009232A1, “COMBINATION THERAPY COMPRISING HER-2-DC1 VACCINE AND A PROBIOTIC” (H. LEE MOFFITT CANCER CENTER AND RESEARCH INSTITUTE, INC., priority 2021, published 2024).

System: TUBO tumors
Assay: Mono- and combination therapies in HER2+ TUBO bearing mice (FIG. 8, FIG. 9)
Format: in vivo, Balb/C mice
Settings: monotherapy
Procedure: Balb/C mice or C57BL/6 mice received tumor cells on day 0 followed by different treatments; two doses of Taxol given intraperitoneally (i.p.) once a week; CDK inhibitor, abemaciclib was administered by oral gavage till end point; Anti-PD-L1 was given i.p. twice a week until end point; DC1 vaccine was given intratumorally.
Balb/C mice bearing TUBO tumors were treated with intratumoral HER2-DC1 vaccine alone or anti-HER2 antibody or a combination of both.
TUBO bearing mice were treated with intratumoral HER2-DC1 vaccine alone or Abemaciclib or a combination of both.
Here, we can investigate the role of gut microbiome in response to combination therapy. […] Balb/C mice bearing TUBO tumors were treated with intratumoral HER-DC1 alone or anti-HER2 antibody (7.16.4+7.9.5) alone or combination of both. While CDK inhibitor, abemaciclib was given daily by oral gavage alone or in combination with intratumoral HER2-DC1.

CC(=O)O[C@H]1C(=O)[C@@]2(C)[C@H]([C@H](OC(=O)c3ccccc3)[C@]3(O)C[C@H](OC(=O)[C@H](O)[C@@H](NC(=O)c4ccccc4)c4ccccc4)C(C)=C1C3(C)C)[C@]1(OC(C)=O)CO[C@@H]1C[C@@H]2O [taxol, paclitaxel]
tumor growth: modestly delayed tumor growth
